From ChEMBL document CHEMBL5653631, “A Potent and Selective ULK1 Inhibitor Suppresses Autophagy and Sensitizes Cancer Cells to Nutrient Stress” (iScience, 2018) come the findings set out here.

Test [1] has as its target Macrophage-stimulating protein receptor (Homo sapiens) (UniProt Q04912). In words: Inhibition of human recombinant RON at 40 nM related to control ULK1.
The target of test [2] is Serine/threonine-protein kinase SIK2 (Homo sapiens) (UniProt Q9H0K1). The test is described as follows: Inhibition of human recombinant QIK at 40 nM in presence of ATP by radiometric assay relative to control.
Serine/threonine-protein kinase SIK2 (Homo sapiens), sequence (Q9H0K1 whole entry, looked up): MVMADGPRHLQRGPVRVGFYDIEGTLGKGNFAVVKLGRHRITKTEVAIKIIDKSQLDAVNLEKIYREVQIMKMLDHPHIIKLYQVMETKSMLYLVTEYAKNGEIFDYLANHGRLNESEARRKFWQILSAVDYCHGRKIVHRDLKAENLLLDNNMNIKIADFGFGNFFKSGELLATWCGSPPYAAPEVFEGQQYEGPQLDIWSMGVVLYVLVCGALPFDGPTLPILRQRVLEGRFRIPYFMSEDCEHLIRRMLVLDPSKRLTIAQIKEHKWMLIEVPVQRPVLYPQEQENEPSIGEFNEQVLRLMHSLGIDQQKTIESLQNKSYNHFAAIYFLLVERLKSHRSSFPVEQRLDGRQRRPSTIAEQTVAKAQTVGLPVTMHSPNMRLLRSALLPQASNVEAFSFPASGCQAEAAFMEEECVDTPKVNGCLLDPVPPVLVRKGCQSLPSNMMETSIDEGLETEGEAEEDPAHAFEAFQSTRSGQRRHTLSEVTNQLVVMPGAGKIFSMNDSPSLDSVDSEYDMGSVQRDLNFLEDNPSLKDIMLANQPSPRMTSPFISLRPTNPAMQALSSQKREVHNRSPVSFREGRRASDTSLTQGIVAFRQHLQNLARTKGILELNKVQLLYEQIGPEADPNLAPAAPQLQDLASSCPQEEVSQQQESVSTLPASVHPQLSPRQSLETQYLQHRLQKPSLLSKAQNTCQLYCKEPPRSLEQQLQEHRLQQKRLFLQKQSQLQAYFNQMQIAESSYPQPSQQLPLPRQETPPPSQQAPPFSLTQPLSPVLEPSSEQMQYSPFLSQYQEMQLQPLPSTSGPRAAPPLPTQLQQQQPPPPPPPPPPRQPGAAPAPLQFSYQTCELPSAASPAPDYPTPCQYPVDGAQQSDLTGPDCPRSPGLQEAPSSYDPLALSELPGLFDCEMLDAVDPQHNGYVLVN
For test [3], the target named is Cyclin-dependent kinase 13 (Homo sapiens) (UniProt Q14004). The test is described as follows: Inhibition of human recombinant CHED at 40 nM related to control ULK1.
Test [4] deals with Tyrosine-protein kinase CSK (Homo sapiens) (UniProt P41240). In words: Inhibition of human recombinant CSK at 500 nM related to control ULK1.
The target of test [5] is MAP kinase-interacting serine/threonine-protein kinase 2 (Homo sapiens, UniProt Q9HBH9). The test is described as follows: Inhibition of human recombinant MNK2 at 500 nM in presence of ATP by radiometric assay relative to control.
Test [6] deals with High affinity nerve growth factor receptor (Homo sapiens) (UniProt P04629). In words: Inhibition of human recombinant TRKA at 500 nM related to control ULK1.
Test [7] addresses T1, Interleukin-1 receptor-associated kinase 4 (Homo sapiens) (UniProt Q9NWZ3).
T1 sequence (whole entry): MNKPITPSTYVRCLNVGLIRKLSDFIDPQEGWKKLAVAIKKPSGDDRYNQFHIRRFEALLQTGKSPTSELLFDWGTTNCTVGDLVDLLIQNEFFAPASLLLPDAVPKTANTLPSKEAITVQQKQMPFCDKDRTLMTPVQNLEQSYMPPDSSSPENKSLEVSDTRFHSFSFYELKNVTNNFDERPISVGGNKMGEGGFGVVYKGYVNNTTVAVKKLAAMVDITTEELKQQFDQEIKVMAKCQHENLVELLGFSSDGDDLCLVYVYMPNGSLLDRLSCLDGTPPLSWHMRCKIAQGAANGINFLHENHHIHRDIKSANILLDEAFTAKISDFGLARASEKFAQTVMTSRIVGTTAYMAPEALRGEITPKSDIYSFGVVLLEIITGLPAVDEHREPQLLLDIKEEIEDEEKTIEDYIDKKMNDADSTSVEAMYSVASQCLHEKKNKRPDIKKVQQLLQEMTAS
The test is described as follows: Inhibition of human recombinant IRAK4 at 500 nM in presence of ATP by radiometric assay relative to control.

Test [8] addresses SRSF protein kinase 2 (Homo sapiens) (UniProt P78362). The test is described as follows: Inhibition of human recombinant SRPK2 at 500 nM in presence of ATP by radiometric assay relative to control.
The target in test [9] is Death-associated protein kinase 1 (Homo sapiens) (UniProt P53355). In words: Inhibition of human recombinant DAPK1 at 500 nM in presence of ATP by radiometric assay relative to control.
Test [10] concerns the target T2, Tyrosine-protein kinase ZAP-70 (Homo sapiens) (UniProt P43403).
T2 sequence (whole entry): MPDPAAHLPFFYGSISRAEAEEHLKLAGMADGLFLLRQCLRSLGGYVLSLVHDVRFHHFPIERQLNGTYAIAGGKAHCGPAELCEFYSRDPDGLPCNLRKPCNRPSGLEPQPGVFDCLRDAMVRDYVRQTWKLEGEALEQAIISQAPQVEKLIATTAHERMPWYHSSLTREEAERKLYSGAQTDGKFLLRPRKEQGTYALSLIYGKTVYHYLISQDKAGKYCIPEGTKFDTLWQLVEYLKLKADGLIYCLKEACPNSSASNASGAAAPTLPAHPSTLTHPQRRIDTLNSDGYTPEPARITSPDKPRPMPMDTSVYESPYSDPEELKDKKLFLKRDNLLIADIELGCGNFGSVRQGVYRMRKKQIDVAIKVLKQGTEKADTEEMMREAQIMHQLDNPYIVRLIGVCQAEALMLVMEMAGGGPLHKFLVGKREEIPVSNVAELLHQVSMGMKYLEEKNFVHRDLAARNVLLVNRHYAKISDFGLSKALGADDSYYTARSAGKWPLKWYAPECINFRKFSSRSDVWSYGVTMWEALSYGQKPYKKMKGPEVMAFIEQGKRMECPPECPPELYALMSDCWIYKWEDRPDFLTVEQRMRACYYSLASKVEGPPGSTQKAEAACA
In words: Inhibition of human recombinant ZAP70 at 15 nM related to control ULK1.

Test [11] has as its target cAMP-dependent protein kinase catalytic subunit beta (Homo sapiens) (UniProt P22694). The test is described as follows: Inhibition of human recombinant PKACbeta at 15 nM related to control ULK1.
Test [12] concerns the target Serine/threonine-protein kinase pim-3 (Homo sapiens) (UniProt Q86V86). In words: Inhibition of human recombinant PIM3 at 15 nM related to control ULK1.
For test [13], the target named is Dual specificity protein kinase CLK4 (Homo sapiens) (UniProt Q9HAZ1). The test is described as follows: Inhibition of human recombinant CLK4 at 15 nM in presence of ATP by radiometric assay relative to control.
Dual specificity protein kinase CLK4 (Homo sapiens), sequence (Q9HAZ1 whole entry, looked up): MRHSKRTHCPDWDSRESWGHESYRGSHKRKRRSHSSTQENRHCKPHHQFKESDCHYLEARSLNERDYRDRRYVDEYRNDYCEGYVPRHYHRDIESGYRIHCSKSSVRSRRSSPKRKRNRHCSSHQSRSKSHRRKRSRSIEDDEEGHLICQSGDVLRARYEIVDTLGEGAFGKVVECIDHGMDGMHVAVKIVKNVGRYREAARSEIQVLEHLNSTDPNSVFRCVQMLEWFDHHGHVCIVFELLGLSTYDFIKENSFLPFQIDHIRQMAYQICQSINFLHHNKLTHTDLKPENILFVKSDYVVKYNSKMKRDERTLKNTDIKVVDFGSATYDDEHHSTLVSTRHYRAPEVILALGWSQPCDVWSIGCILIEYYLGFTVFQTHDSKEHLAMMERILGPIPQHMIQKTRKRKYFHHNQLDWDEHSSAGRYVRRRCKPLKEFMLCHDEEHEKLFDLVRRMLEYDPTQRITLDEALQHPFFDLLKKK
In test [14] the target is Serine/threonine-protein kinase 33 (Homo sapiens) (UniProt Q9BYT3). The test is described as follows: Inhibition of human recombinant STK33 at 15 nM related to control ULK1.
In test [15] the target is Phosphorylase b kinase gamma catalytic chain, skeletal muscle/heart isoform (Homo sapiens) (UniProt Q16816). The test is described as follows: Inhibition of human recombinant PHKg1 at 15 nM related to control ULK1.
Test [16] addresses Angiopoietin-1 receptor (Homo sapiens) (UniProt Q02763). The test is described as follows: Inhibition of human recombinant Tie2 at 15 nM in presence of ATP by radiometric assay relative to control.
For test [17], the target named is Serine/threonine-protein kinase MAK (Homo sapiens) (UniProt P20794). The test is described as follows: Inhibition of human recombinant MAK at 15 nM related to control ULK1.

Macrophage-stimulating protein receptor (Homo sapiens), sequence (Q04912 25-304 limits assumed): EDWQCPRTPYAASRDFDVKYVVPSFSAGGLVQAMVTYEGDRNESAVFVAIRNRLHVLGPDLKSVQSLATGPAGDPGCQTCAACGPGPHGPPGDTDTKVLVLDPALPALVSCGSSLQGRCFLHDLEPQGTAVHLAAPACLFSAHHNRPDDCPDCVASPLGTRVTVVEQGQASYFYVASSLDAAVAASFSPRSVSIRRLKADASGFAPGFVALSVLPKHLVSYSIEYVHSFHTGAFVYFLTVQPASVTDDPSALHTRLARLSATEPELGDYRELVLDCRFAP
Macrophage-stimulating protein receptor (Homo sapiens), sequence (Q04912 310-1400 limits assumed): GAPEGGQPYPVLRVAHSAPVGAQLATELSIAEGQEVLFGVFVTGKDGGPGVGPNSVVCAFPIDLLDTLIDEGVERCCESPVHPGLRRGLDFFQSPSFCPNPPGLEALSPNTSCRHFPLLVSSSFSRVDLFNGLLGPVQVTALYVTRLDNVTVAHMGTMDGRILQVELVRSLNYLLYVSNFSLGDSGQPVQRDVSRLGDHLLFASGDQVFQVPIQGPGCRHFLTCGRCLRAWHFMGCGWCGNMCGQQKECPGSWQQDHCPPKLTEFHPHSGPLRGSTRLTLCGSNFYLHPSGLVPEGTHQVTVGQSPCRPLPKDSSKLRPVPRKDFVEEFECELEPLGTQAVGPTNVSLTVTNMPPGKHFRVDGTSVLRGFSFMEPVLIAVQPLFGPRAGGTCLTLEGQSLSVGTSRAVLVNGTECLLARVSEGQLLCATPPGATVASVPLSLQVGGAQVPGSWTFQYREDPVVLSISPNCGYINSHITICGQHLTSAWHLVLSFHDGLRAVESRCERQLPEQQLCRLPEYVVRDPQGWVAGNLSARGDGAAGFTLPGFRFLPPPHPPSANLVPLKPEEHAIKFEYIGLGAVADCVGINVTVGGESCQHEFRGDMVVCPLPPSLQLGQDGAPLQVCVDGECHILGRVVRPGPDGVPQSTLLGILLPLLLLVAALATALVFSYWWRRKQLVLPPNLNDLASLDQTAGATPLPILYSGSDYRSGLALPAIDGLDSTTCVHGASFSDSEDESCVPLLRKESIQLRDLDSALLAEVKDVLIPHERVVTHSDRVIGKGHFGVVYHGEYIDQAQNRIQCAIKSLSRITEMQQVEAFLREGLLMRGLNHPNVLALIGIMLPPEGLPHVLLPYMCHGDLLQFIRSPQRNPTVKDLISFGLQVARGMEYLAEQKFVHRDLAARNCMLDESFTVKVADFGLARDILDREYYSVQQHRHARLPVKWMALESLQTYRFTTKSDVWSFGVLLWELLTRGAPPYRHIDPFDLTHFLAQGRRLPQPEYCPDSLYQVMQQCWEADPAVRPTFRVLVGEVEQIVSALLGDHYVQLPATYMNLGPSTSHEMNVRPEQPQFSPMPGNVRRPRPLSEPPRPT
SRSF protein kinase 2 (Homo sapiens), sequence (P78362 whole entry, looked up): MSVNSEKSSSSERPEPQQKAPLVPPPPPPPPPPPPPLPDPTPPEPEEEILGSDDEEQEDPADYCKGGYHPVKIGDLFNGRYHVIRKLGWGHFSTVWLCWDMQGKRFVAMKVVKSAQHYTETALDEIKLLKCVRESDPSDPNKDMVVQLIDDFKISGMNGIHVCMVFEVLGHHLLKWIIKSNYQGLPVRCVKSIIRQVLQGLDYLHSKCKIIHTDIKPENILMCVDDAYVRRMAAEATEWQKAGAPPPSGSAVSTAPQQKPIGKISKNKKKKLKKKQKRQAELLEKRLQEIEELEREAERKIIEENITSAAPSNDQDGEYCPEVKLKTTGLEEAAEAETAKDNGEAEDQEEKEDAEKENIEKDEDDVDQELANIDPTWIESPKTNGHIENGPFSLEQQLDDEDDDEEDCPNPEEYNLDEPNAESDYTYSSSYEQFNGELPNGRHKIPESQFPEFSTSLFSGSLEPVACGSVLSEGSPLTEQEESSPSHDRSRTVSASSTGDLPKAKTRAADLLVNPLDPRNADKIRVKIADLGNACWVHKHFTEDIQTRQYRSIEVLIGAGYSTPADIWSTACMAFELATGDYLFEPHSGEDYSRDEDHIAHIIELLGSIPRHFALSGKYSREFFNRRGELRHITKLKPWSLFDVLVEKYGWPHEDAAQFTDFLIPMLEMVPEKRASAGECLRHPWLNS
Angiopoietin-1 receptor (Homo sapiens), sequence (Q02763 whole entry): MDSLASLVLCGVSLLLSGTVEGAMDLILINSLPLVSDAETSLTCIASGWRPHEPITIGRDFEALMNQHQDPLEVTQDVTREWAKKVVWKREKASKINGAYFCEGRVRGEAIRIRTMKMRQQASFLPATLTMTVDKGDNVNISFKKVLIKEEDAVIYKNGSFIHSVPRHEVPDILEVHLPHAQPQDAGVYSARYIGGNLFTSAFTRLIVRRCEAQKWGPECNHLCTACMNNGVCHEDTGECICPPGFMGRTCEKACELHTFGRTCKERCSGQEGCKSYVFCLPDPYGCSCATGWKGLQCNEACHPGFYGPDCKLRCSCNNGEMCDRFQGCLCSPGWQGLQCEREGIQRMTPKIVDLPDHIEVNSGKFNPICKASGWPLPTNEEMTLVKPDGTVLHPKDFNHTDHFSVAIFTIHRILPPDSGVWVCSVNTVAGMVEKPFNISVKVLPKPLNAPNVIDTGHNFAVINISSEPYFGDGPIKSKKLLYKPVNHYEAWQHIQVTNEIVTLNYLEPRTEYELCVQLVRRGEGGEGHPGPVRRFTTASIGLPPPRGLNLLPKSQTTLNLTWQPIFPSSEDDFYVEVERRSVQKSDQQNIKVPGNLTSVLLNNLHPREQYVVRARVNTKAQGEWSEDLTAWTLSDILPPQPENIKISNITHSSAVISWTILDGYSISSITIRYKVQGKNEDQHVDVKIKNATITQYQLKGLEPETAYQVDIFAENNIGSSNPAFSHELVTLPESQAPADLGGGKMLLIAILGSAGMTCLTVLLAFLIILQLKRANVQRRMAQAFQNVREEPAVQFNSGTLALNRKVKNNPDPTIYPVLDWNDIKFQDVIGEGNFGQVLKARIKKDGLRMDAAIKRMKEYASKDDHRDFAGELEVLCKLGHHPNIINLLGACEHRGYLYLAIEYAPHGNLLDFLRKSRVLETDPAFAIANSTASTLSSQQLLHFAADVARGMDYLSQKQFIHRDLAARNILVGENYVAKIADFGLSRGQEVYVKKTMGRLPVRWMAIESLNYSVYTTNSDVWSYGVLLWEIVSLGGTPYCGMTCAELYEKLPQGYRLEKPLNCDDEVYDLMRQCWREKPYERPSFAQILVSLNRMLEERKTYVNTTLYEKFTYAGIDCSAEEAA

As to `O=C(N[C@@H](C1CC1)C(F)(F)F)c1cc(-c2cnn3cc(-c4ccc(F)cc4)cnc23)cs1`, the figures for the fold change (FC) in test [1] and in test [3] were 0 and 0.05, respectively. The inhibition in test [2] was found to be 54%.
In the case of `CNC(=O)c1ccccc1Oc1nc(Nc2cc(OC)c(OC)c(OC)c2)ncc1Br`, the fold change (FC) in [4] is 0.03; in test [6], 0.7. Moreover, the inhibition was 2% in [5], 6% in test [7], 5% in test [8] and 0% in [9].
On to `CC(C)[C@H](NC(=O)c1cc(-c2cnn3cc(-c4ccc(OCCN5CCCCC5)cc4)cnc23)cs1)C(F)(F)F`, for which the fold change (FC) came to 0 in test [10]; 0 in test [11]; 0.02 in test [12]; 0.18 in [14]; 0.58 in test [15]; 0.06 in test [17]. Moreover, the inhibition in test [13] was determined as 83%; in test [16], 0%.

In general, inhibition refers to the relative decrease from the control value, in per cent.
